Data as given in BigSolDB 2.1.

COc1ccccc1N1CCN(CC(O)COc2cccc3ccccc23)CC1 (stereo not given)
solubility (mole fraction)
Settings	288.15 K	293.15 K	298.15 K	303.15 K	308.15 K	313.15 K	318.15 K	323.15 K	328.15 K
in DMSO	–	0.0283	0.0323	0.0367	0.0416	0.0468	0.0527	0.059	0.066
in ethanol	0.00142	0.00163	0.00189	0.00216	0.00244	0.00277	0.00314	0.00355	0.00397
in isopropanol	0.000714	0.000827	0.000959	0.00111	0.00127	0.00145	0.00165	0.00186	0.00213
in water	2.07e-06	2.69e-06	3.46e-06	4.43e-06	5.65e-06	7.05e-06	8.85e-06	1.09e-05	1.37e-05
